Measurements taken from EP0137900B1, “Bis-platinum complexes as antitumor agents” (priority 1983, dated 1985).

Experiments:
[1] = Solubility (water, organic solvents, 1% NaHCO3, basic solutions); settings: result in words
[2] = tested on: murine tumor line L1210 leukemia; assay: Antitumor screen against murine L1210 leukemia implanted in mice; format: in vivo, CDF1 mice; settings: for Percent Increase in Lifespan: start 24 hours after inoculation of 1 x 10^6 L1210 cells in CDF1 mice; for toxic dose: L1210-bearing mice
[3] = 1% nahco3
[4] = in water; cited from earlier work

## 5,5'-carbonylbistrimellito bis [(1,2-diaminocyclohexane)platinum(II)1 [Example 6]
[1]
  solubility in 1% NaHC03 solution: dissolves readily

## benzenepentacarboxylatobis[(1,2-diaminocyclohexane) platinum(ll)] [Example 1]
[2]; Dose 2.5 mg/kg, Daily x 7, intraperitoneally, in 1% NaHCO3
  Percent Increase in Lifespan: 87%
[2]; Dose 2.5 mg/kg, schedule 'Drugs 1, 5 and 9' [sic], intraperitoneally
  Percent Increase in Lifespan: 21%
[2]; Dose 5.0 mg/kg, Daily x 7, intraperitoneally, in 1% NaHCO3
  Percent Increase in Lifespan: 117%
[2]; Dose 5.0 mg/kg, schedule 'Drugs 1, 5 and 9' [sic], intraperitoneally
  Percent Increase in Lifespan: 43%
[2]; Dose 10.0 mg/kg, Daily x 7, intraperitoneally, in 1% NaHCO3
  Percent Increase in Lifespan: 61%
[2]; Dose 10.0 mg/kg, schedule 'Drugs 1, 5 and 9' [sic], intraperitoneally
  Percent Increase in Lifespan: 135%
[2]; Dose 20.0 mg/kg, schedule 'Drugs 1, 5 and 9' [sic], intraperitoneally
  Percent Increase in Lifespan: 193%
[2]; daily x 7 schedule
  toxic dose: 20 mg/kg
[2]; days 1, 5, 9 schedule
  toxic dose: 40 mg/kg
[2]; dose range 2.5-20 mg/kg, result in words
  activity against the experimental murine tumor line L1210 leukemia: active
[3]
  solubility: greater than 10 mg/ml

## cis-[Pt(NH3)2Cl2] [Cisplatin]
[4]
  water solubility: about 1 mg/ml
